Laboratory results: ChEMBL document CHEMBL1201862, “PubChem BioAssay data set” (2004)
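Five compound concentrations were applied to cells in 96-well plates for 48 hours; endpoints were derived by simple linear interpolation of the resulting dose-response curve. GI50 = concentration required for 50% inhibition of growth.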 The source made the active and inactive calls. Rule as the data show it: active = GI50 up to about 1.1 µM and inactive = higher.

Columns and labels:
Test in all cases: growth of human tumour cells (NCI), 48 h
786-0 = test system: 786-0
A498 = test system: A498
CAKI-1 = test system: CAKI-1
CCRF-CEM = test system: CCRF-CEM
COLO 205 = test system: COLO 205
HCT-116 = test system: HCT-116
HT-29 = test system: HT-29
K562 = test system: K562
M14 = test system: M14
NCI-H23 = test system: NCI-H23
OVCAR-5 = test system: OVCAR-5
SNB-75 = test system: SNB-75
TK-10 = test system: TK-10
UACC-62 = test system: UACC-62
RXF 393 = test system: RXF 393
SF-268 = test system: SF-268
SK-OV-3 = test system: SK-OV-3

Measured: GI50

C/C(CN1C(=O)c2ccccc2C1=O)=N\NS(=O)(=O)c1ccc(Cl)cc1
inactive: 786-0 > 100 µM | A498 > 100 µM | CAKI-1 > 100 µM | CCRF-CEM > 100 µM | COLO 205 > 100 µM | HCT-116 > 100 µM | HT-29 > 100 µM | K562 > 100 µM | M14 > 100 µM | NCI-H23 > 100 µM | OVCAR-5 > 100 µM | SNB-75 > 100 µM | TK-10 > 100 µM | UACC-62 > 100 µM

CC(=O)C1C(=O)C(=O)N(CCN2C(=O)C(=O)C(C(C)=O)C2=O)C1=O (centres undefined)
inactive: 786-0 > 100 µM | A498 > 100 µM | CAKI-1 > 100 µM | COLO 205 > 100 µM | HCT-116 > 100 µM | HT-29 > 100 µM | K562 > 100 µM | M14 > 100 µM | NCI-H23 > 100 µM | OVCAR-5 > 100 µM | RXF 393 > 100 µM | SF-268 > 100 µM | SK-OV-3 > 100 µM | SNB-75 > 100 µM | TK-10 > 100 µM | UACC-62 > 100 µM

NS(=O)(=O)c1ccc(NC(=O)c2cccc3c(=O)c4ccccc4[nH]c23)cc1
inactive: 786-0 > 100 µM | A498 51.3 µM | CAKI-1 > 100 µM | CCRF-CEM 5.85 µM | COLO 205 37.2 µM | HCT-116 32.4 µM | HT-29 > 100 µM | K562 62.2 µM | M14 > 100 µM | NCI-H23 67.3 µM | OVCAR-5 > 100 µM | SF-268 30.6 µM | SK-OV-3 19.9 µM | SNB-75 15.3 µM | TK-10 89.1 µM | UACC-62 41.8 µM

CC(C)N(C(=O)C12C3C4C5C3C1(C(=O)O)C5C42)C(C)C (centres undefined)
inactive: 786-0 > 100 µM | A498 > 100 µM | CAKI-1 > 100 µM | CCRF-CEM > 100 µM | COLO 205 > 100 µM | HCT-116 > 100 µM | HT-29 > 100 µM | K562 > 100 µM | M14 > 100 µM | NCI-H23 > 100 µM | OVCAR-5 > 100 µM | SF-268 > 100 µM | SK-OV-3 > 100 µM | SNB-75 61.2 µM | TK-10 > 100 µM | UACC-62 > 100 µM

COc1cccc(N2C(=O)[C@H]3[C@H]4CC(C(C)(C)C)CC[C@H]4c4c([nH]c5ccccc45)[C@H]3C2=O)c1 (some centres undefined)
inactive: 786-0 16.6 µM | CAKI-1 17.2 µM | CCRF-CEM 13.7 µM | COLO 205 15.5 µM | HT-29 21.3 µM | K562 14 µM | M14 15.1 µM | NCI-H23 19.2 µM | RXF 393 21.1 µM | SF-268 27.3 µM | SK-OV-3 20.8 µM | SNB-75 15.3 µM | TK-10 15.2 µM | UACC-62 14.6 µM

Cc1ccc(Nc2nc3c(s2)C(=O)c2ccccc2C3=O)cc1
inactive: 786-0 1.88 µM | A498 16.4 µM | CAKI-1 1.63 µM | CCRF-CEM 1.58 µM | COLO 205 12.3 µM | HT-29 3.18 µM | K562 2.29 µM | M14 1.78 µM | NCI-H23 1.82 µM | OVCAR-5 1.91 µM | SF-268 1.9 µM | SK-OV-3 24.9 µM | SNB-75 2.14 µM | TK-10 7.26 µM | UACC-62 1.87 µM

CC(C)[C@@H]1C=C(c2ccccc2)c2ccccc2C1C(C#N)(C#N)C(C)C (some centres undefined)
inactive: 786-0 > 100 µM | A498 > 100 µM | CCRF-CEM > 100 µM | COLO 205 > 100 µM | HCT-116 32.9 µM | HT-29 68.7 µM | K562 38.2 µM | M14 > 100 µM | NCI-H23 76 µM | OVCAR-5 > 100 µM | RXF 393 > 100 µM | SF-268 > 100 µM | SK-OV-3 > 100 µM | SNB-75 > 100 µM | TK-10 > 100 µM | UACC-62 > 100 µM

CC(=O)c1cc2c3c(c1)c1cc4c(cc1c(=O)n3CC2)OCO4
inactive: 786-0 13.4 µM | CAKI-1 20.8 µM | CCRF-CEM 11.9 µM | COLO 205 29.6 µM | HCT-116 4.71 µM | HT-29 19.4 µM | K562 18.1 µM | M14 59.7 µM | NCI-H23 75.5 µM | OVCAR-5 78.7 µM | RXF 393 32.4 µM | SK-OV-3 > 100 µM | SNB-75 34.4 µM | TK-10 21.2 µM | UACC-62 17.3 µM

O=C(O/N=C1/CCCC/C1=C\c1ccccc1)c1ccc(Cl)cc1
inactive: 786-0 > 100 µM | CAKI-1 84.5 µM | CCRF-CEM > 100 µM | COLO 205 > 100 µM | HCT-116 > 100 µM | HT-29 > 100 µM | K562 > 100 µM | M14 > 100 µM | NCI-H23 > 100 µM | OVCAR-5 44.8 µM | RXF 393 > 100 µM | SF-268 > 100 µM | SK-OV-3 > 100 µM | SNB-75 88.7 µM | TK-10 > 100 µM | UACC-62 > 100 µM

CC1(C)OCN(c2ccc(N3CCOCC3)cc2)Cn2c1nc1ccccc12
inactive: 786-0 > 100 µM | A498 > 100 µM | CCRF-CEM 40.7 µM | COLO 205 > 100 µM | HCT-116 65.9 µM | HT-29 > 100 µM | K562 > 100 µM | M14 > 100 µM | NCI-H23 > 100 µM | RXF 393 39.1 µM | SF-268 > 100 µM | SK-OV-3 > 100 µM | SNB-75 > 100 µM | TK-10 > 100 µM | UACC-62 > 100 µM

O=[N+]([O-])c1nccn1COCCI
inactive: 786-0 > 100 µM | CAKI-1 > 100 µM | CCRF-CEM > 100 µM | COLO 205 > 100 µM | HCT-116 > 100 µM | HT-29 > 100 µM | K562 > 100 µM | M14 > 100 µM | NCI-H23 > 100 µM | OVCAR-5 > 100 µM | SF-268 > 100 µM | SK-OV-3 > 100 µM | SNB-75 > 100 µM | TK-10 > 100 µM | UACC-62 > 100 µM

CC1CCC2(OCCO2)[C@]2(C)CC(O)C(=O)C=C12 (some centres undefined)
inactive: 786-0 > 100 µM | CCRF-CEM > 100 µM | COLO 205 > 100 µM | HT-29 > 100 µM | K562 > 100 µM | M14 > 100 µM | NCI-H23 > 100 µM | OVCAR-5 > 100 µM | RXF 393 > 100 µM | SF-268 > 100 µM | SK-OV-3 > 100 µM | TK-10 > 100 µM

COc1ccc(CC2NCCc3c2[nH]c2ccccc32)cc1 (centres undefined)
inactive: 786-0 > 100 µM | A498 > 100 µM | CCRF-CEM 46.2 µM | COLO 205 17.4 µM | HCT-116 40 µM | HT-29 28.3 µM | K562 32.6 µM | M14 41.6 µM | OVCAR-5 > 100 µM | SF-268 79.6 µM | SK-OV-3 > 100 µM | SNB-75 39.1 µM | TK-10 > 100 µM | UACC-62 > 100 µM
